Legend:
[1] = target: T1, GhJMT2 (Gossypium hirsutum, UniProt A0A2K9REX3); assay: GC-MS product detection, recombinant E. coli supernatant; format: biochemical; conditions: SAM 1 uL of 100 mM, KCl, 25 °C, 30 min; empty vector control; product MeJA
T1 construct: gene JMT2; cloning primers encode MEVVQVL... ...PMDVFLF (derived)
T1 sequence (A0A2K9REX3 1-372): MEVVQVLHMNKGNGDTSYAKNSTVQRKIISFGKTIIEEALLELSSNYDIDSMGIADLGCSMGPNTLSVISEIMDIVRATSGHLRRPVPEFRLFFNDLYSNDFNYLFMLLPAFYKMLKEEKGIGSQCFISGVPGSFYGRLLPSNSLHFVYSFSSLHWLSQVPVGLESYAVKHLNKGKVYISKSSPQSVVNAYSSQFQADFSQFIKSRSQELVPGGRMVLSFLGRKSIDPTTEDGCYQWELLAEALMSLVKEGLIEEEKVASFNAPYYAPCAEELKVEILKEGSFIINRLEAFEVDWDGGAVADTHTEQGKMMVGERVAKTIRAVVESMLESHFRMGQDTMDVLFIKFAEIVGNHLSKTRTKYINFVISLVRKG

[2] = target: T2, GhJMT1 (Gossypium hirsutum, UniProt A0ACM8RG93); assay: as above; format: biochemical; conditions: SAM 1 uL of 100 mM, KCl, 25 °C, 30 min; empty vector control; product MeJA
T2 construct: gene JMT1; cloning primers encode MQVLHMN... ...ALTKKW (derived)
T2 sequence (A0ACM8RG93 1-371): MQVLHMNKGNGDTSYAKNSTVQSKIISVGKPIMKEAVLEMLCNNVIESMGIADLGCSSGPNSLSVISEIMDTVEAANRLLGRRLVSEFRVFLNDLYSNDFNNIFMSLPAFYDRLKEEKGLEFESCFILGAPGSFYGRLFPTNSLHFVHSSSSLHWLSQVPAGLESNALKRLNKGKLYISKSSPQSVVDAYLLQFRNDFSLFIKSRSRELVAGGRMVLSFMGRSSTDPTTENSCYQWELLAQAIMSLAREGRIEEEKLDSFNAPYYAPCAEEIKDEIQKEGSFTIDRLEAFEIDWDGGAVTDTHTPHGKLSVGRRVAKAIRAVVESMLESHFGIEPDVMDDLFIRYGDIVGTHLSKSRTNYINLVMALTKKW

Question: How did the “GC-MS product detection, recombinant E. coli supernatant” value [1] turn out when CC/C=C\C[C@H]1C(=O)CC[C@@H]1CC(=O)O [jasmonic acid] was run?
Answer: Its value is “recombinant GhJMT1 and GhJMT2 were both responsible for the conversion of JA to MeJA”.

Question: And the “GC-MS product detection, recombinant E. coli supernatant” value [2]?
Answer: Its value is “recombinant GhJMT1 and GhJMT2 were both responsible for the conversion of JA to MeJA”.
